Measurements reported in ChEMBL document CHEMBL2163249, “Exploration of natural compounds as sources of new bifunctional scaffolds targeting cholinesterases and beta amyloid aggregation: the case of chelerythrine” (Bioorg Med Chem, 2012).
pIC50: −log10 of the molar value. Counter-ions that a name gives are not always drawn.

Experiments:
Cholinesterase [1] = molecular target: Cholinesterase (Homo sapiens, UniProt P06276); assay: Inhibition of human BChE by Ellman's method; conditions: read-out: IC50
Cholinesterase [2] = molecular target: Cholinesterase (Equus caballus, UniProt P81908); assay: Inhibition of horse BChE by Ellman's method; conditions: read-out: IC50
Acetylcholinesterase = Acetylcholinesterase (Electrophorus electricus, UniProt O42275); assay: Inhibition of electric eel AChE by Ellman's method
[3] = molecular target: Cholinesterase (Equus caballus) (UniProt P81908); conditions: at 2 mg/mL
Description: Inhibition of horse BChE at 2 mg/ml by Ellman's method

[4] = molecular target: Acetylcholinesterase (Electrophorus electricus) (UniProt O42275); conditions: at 2 mg/mL
Description: Inhibition of electric eel AChE at 2 mg/ml by Ellman's method

Acetylcholinesterase, sequence (O42275 whole entry): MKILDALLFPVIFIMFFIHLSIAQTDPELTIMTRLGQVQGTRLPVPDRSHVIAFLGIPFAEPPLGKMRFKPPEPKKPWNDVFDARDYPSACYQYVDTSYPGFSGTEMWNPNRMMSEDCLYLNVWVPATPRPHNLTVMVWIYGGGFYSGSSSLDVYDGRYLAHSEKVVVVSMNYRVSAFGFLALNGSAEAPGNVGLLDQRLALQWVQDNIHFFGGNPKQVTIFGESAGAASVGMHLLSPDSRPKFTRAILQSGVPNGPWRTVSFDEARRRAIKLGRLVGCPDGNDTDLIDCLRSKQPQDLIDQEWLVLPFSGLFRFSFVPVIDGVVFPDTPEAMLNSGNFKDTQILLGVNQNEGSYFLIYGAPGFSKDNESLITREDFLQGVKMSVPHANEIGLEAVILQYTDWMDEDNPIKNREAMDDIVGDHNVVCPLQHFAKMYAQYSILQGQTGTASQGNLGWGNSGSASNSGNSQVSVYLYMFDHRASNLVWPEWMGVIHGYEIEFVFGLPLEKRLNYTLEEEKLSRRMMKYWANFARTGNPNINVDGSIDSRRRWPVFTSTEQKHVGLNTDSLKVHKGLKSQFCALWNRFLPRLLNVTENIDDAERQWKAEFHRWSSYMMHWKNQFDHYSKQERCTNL
Cholinesterase (Equus caballus), sequence (P81908 whole entry): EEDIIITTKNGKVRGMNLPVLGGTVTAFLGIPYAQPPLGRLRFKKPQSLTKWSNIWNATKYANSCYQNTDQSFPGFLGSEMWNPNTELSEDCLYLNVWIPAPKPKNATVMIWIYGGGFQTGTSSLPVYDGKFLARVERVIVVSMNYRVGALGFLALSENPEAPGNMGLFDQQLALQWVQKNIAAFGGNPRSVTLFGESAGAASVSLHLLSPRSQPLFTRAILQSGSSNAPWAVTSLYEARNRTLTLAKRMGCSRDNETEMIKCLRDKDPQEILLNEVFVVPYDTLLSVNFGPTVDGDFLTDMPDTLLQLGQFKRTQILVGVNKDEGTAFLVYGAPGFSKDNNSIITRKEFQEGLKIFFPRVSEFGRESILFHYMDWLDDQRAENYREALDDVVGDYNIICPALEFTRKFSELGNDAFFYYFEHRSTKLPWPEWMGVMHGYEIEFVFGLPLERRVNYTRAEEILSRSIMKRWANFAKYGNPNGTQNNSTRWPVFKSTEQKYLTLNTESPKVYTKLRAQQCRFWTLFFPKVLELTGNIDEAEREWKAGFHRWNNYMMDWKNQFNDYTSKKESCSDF
Cholinesterase (Equus caballus, UniProt P81908), sequence (P81908 whole entry): as above
Cholinesterase (Homo sapiens, UniProt P06276), sequence (P06276 whole entry): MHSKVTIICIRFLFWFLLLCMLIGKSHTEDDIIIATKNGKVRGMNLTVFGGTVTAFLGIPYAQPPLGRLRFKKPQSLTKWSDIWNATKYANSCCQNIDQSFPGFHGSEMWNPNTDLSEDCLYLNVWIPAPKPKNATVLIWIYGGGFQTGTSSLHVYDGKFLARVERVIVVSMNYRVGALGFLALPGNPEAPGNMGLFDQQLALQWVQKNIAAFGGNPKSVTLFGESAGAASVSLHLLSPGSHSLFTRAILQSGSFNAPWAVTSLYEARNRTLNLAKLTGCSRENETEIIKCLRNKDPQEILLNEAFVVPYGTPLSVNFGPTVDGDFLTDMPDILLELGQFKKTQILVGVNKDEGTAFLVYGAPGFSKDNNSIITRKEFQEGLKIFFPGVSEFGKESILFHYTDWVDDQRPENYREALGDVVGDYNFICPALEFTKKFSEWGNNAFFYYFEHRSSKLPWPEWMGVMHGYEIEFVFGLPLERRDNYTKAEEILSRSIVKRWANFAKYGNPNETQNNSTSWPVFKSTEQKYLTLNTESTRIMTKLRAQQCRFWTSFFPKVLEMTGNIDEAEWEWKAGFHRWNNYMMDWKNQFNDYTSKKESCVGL

## C=C[C@H]1C[N@@]2CC[C@H]1C[C@@H]2[C@@H](O)c1ccnc2ccc(OC)cc12 [QUINIDINE]
Cholinesterase [1]
  pIC50: 5.91
Cholinesterase [2]
  pIC50: 5.13

## OC1c2ccccc2N=C2CCCN21 (centres undefined) [PEGANOLE]
Cholinesterase [1]
  pIC50: < 4.70
Acetylcholinesterase
  IC50: Not Active
Cholinesterase [2]
  pIC50: 4.94
[3]
  inhibition: 65.7%

## C=C[C@H]1CN2CC[C@H]1C[C@@H]2[C@@H](O)c1ccnc2ccc(OC)cc12 [QUINIDINE]
[4]
  inhibition: 20.2%
Acetylcholinesterase
  IC50: Not Active
[3]
  inhibition: 66%

## c1ccc2c(c1)CN1CCCC1=N2 [DESOXYPEGANINE HYDROCHLORIDE HYDRATE]
[4]
  inhibition: 70.6%
Acetylcholinesterase; read-out: IC50
  pIC50: 4.93
Cholinesterase [2]
  pIC50: 4.92
[3]
  inhibition: 94.8%

## C[C@@]12C(=O)OC(=O)[C@]1(C)[C@H]1CC[C@@H]2O1
[4]
  inhibition: -7.81%
[3]
  inhibition: -2.13%

## CN1CCc2cc(O)c(O)cc2C1Cc1ccc(O)c(O)c1 (centres undefined)
[4]
  inhibition: 28.1%
[3]
  inhibition: 24.1%

## COc1cc([C@@H]2c3cc4c(cc3[C@H](O)[C@H]3COC(=O)[C@H]23)OCO4)cc(OC)c1OC
[4]
  inhibition: 8.74%
[3]
  inhibition: -9.54%

## C=CCc1cc(OC)c2c(c1)OCO2
[4]
  inhibition: 6.75%
[3]
  inhibition: -9.87%

## C[C@H]1CCCC(=O)CCC/C=C/c2cc(O)cc(O)c2C(=O)O1
[4]
  inhibition: 1.81%
[3]
  inhibition: -1.04%

## C=C1CC[C@@H]2[C@](C)(CO)[C@H](O)CC[C@@]2(C)[C@@H]1C/C=C1/C(=O)OC[C@H]1O
[4]
  inhibition: 25.1%
[3]
  inhibition: 8.56%

## Cc1c(C(=O)O)c(O)cc2c1C(=O)c1c(O)c([C@@H]3O[C@H](CO)[C@@H](O)[C@H](O)[C@H]3O)c(O)c(O)c1C2=O
[4]
  inhibition: 21.5%
[3]
  inhibition: -1.98%

## c1ccc2c(Cc3c[nH]c4ccccc34)c[nH]c2c1
[4]
  inhibition: 4.61%
[3]
  inhibition: 21.7%

## CC[C@@]1(O)C(=O)OCc2c1cc1n(c2=O)Cc2cc3cc(O)ccc3nc2-1
[4]
  inhibition: -5.24%
[3]
  inhibition: 6.63%

## COc1cc(C(=O)O[C@H]2C/C(C)=C/CC/C(C)=C/[C@H](O)[C@@H]2C(C)C)ccc1O
[4]
  inhibition: 23.6%
[3]
  inhibition: 3.49%

## O=C1Cc2c([nH]c3ccc(Br)cc23)-c2ccccc2N1
[4]
  inhibition: -7.55%
[3]
  inhibition: -1%

## IVERMECTIN
[4]
  inhibition: 17.8%
[3]
  inhibition: -3.98%

## C[C@H]([C@H](O)CCC(C)(C)O)[C@H]1CC[C@@]2(O)C3=CC(=O)[C@@H]4C[C@@H](O)[C@@H](O)C[C@]4(C)[C@H]3CC[C@]12C
[4]
  inhibition: -0.57%
[3]
  inhibition: -1.9%

## CN(C)CCc1ccc(O)cc1
[4]
  inhibition: -4.35%
[3]
  inhibition: -2.06%

## CC(C)=CCC[C@]1(C)C=Cc2c(O)c3c(c(CC=C(C)C)c2O1)O[C@]12C(=C[C@@H]4C[C@H]1C(C)(C)O[C@@]2(C/C=C(/C)C(=O)O)C4=O)C3=O
[4]
  inhibition: 1.17%
[3]
  inhibition: 8.47%

## CCCCC[C@H](O)CC(=O)CCc1ccc(O)c(OC)c1
[4]
  inhibition: 1.06%
[3]
  inhibition: -2.06%

## C/C=C1\C[C@@H](C)[C@](O)(CO)C(=O)OCC2=CCN3CC[C@@H](OC1=O)[C@@H]23
[4]
  inhibition: 4.15%
[3]
  inhibition: -3.05%

## C[C@H]1CC[C@@]2(OC1)O[C@H]1C[C@H]3[C@@H]4CC[C@@H]5C[C@@H](O)CC[C@]5(C)[C@H]4CC[C@]3(C)[C@H]1[C@@H]2C
[4]
  inhibition: -3.09%
[3]
  inhibition: -2.96%

## CC[C@H]1[C@@H]2C[C@H]3[C@@H]4N(C)c5ccccc5[C@]45C[C@@H]([C@@H]2[C@H]5O)N3[C@@H]1O
[4]
  inhibition: 29.8%
[3]
  inhibition: 22.3%

## COc1cc(/C=C/C(=O)CC(=O)/C=C/c2ccc(O)c(OC)c2)ccc1O
[4]
  inhibition: -2.21%
[3]
  inhibition: 2.41%

## COc1cc(/C=C/C(=O)O)ccc1O
[4]
  inhibition: -1.29%
[3]
  inhibition: -0.02%

## O=C1C[C@@H](c2ccc(O)c(O)c2)Oc2cc(O)cc(O)c21
[4]
  inhibition: 20.2%
[3]
  inhibition: -0.11%

## CCCCCCCCCCCCCC(=O)O[C@@H]1[C@@H](C)[C@@]2(O)[C@@H](C=C(CO)C[C@]3(O)C(=O)C(C)=C[C@@H]23)[C@@H]2C(C)(C)[C@]12OC(C)=O
[4]
  inhibition: 19.6%
[3]
  inhibition: -6.35%
